Patent US8258258B2, “Dimeric or multimeric microproteins” (BioNTech AG, priority 2005, dated 2012)

These substances were tested on TPOR/4Rα hybrid receptor (assay: Ba/F3 luciferase reporter gene assay, TPO competition (antagonist activity)). Details: 5 nM TPO and 500 nM of each compound; FIG. 3.
Assay type: cell-based, human
Experimental: The expression vector for the TPOR/4Rα hybrid receptor, pcDNATPOR/4Rα, was constructed as follows. A PCR reaction was performed on a cDNA clone containing the human TPO receptor coding sequence using oligonucleotides TpoR-Xho-lo (5′-[…]-3′; SEQ ID NO.: 18) and TpoR-Xho-up (5′-[…]-3′; SEQ ID No.: 19). The resulting PCR product was digested with XhoI and ligated into similarly digested vector pASKcDNA-NH to yield pASKcDNA-NH-TPOR. pASKcDNA-NH resulted from the subcloning of an NheI/HindIII fragment of pcDNA/4Rα (Krause et al., 2004) in pASK21TETIsendc1/2 (Christmann et al., 1999). From the vector pASKcDNA-NH-TPOR the NheI/HindIII fragment containing the TPOR coding sequence was ligated to similarly digested pcDNA/4Rα to yield pcDNATPOR/4Rα. The STAT6 reporter gene construct pIεTATALuc was generated by insertion of a synthetic Hind III/Bam HI fragment representing the entire promoter/enhancer-sequence from the IL-4 responsive region of the human Iε promoter (Ezernieks et al., 1996) into luciferase expression plasmid pTATALuc+ (Altschmied et al., 1997).
The murine pre-B cell line Ba/F3 was cultured as described (Lischke et al., 1995). Cells were transfected using the cell line Nucleofector™ kit V (Amaxa, Germany). Briefly, 8×10^6 cells were starved for 2 h in RPMI 1640/10% FCS, centrifuged and resuspended in 100 μl of transfection reagent V supplemented with 4 μg of expression vector pcDNATPOR/4Rα and 1 μg of reporter gene construct pIεTATALuc. Transfection was performed with the Nucleofector™ device applying program T16. Each transfection batch was recovered in 3.5 ml RPMI 1640/10% FCS and seeded at 2×10^5 cells/100 μl per well in a 96-well cell culture plate. Cells were left untreated for 1 h and then supplemented with various concentrations of hTPO (Immunotools, Germany) and individual microprotein candidates, respectively, to a total volume of 200 μl. For TPO competition assays cell aliquots were preincubated with individual microprotein samples 1 hour before stimulation with hTPO. After incubation for 12 h at 37° C., 5% CO2, cell lysates were prepared and luciferase activity was measured as described previously (Krause et al., 2004).
These cells were transfected with a gene encoding a fusion of the hTPOR extracellular domain and the intracellular 4Rα domain from human […] and co-transfected with a reporter gene construct pIεTATALuc (Krause et al., 2004). […] The same result was obtained for SE-AG-TP-040 in some assays. On the other hand, agonistic activity was shown for all the microproteins so far tested (Table 1).

TPOR/4Rα hybrid receptor, sequence (P40238 26-491 limits assumed): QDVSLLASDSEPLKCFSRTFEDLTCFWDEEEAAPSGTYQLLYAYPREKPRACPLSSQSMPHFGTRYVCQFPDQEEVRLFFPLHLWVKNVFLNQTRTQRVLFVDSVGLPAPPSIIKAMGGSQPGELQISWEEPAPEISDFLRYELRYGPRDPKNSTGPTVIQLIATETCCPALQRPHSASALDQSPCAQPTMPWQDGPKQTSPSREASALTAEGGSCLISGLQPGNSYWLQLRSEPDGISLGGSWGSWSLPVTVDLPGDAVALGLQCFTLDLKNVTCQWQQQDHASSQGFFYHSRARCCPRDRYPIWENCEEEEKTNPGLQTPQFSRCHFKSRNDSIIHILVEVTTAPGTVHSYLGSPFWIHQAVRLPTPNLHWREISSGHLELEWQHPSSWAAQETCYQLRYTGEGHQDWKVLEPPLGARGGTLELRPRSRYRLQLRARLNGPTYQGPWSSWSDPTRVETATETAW

Substance	Inhibition of TPO receptor activation (TPO antagonist)
GCVRLHESCLGQQVPCCDPAATCGGTALAiegptlrqwlaaraCKGS (GCVRLHESCLGQQVPCCDPAATCGGTALAIEGPTLRQWLAARACKGS) [SE-AG-TP-040]	able to act as TPO antagonists
GCVRLHESCLGQQVPCCDPAATCiegptlrqwlaaraCKGS (GCVRLHESCLGQQVPCCDPAATCIEGPTLRQWLAARACKGS) [SE-AG-TP-030]	able to act as TPO antagonists
GCiegptlrqwlaaCKQDSDCLAGCVCGPNGFCGS (GCIEGPTLRQWLAACKQDSDCLAGCVCGPNGFCGS) [SE-ET-TP-030]	able to act as TPO antagonists
GCiegptlrqwlaaraCKQDSDCLAGCVCGPNGFCGS (GCIEGPTLRQWLAARACKQDSDCLAGCVCGPNGFCGS) [SE-ET-TP-020]	able to act as TPO antagonists
iegptlrqwlaara (IEGPTLRQWLAARA) [SE-LN-TP-020, reference compound]	able to act as TPO antagonists

These substances were tested on platelet count (assay: In vivo platelet expansion test). Details: Balb/c mice, 10 and 1000 μg/kg twice daily s.c., after 5 days; FIG. 7.
Experimental: To assess the in vivo function of SE-ET-TP-020, Balb/c mice (n=5) were treated twice daily with 10 and 1000 μg/kg, respectively, SE-ET-TP-020 by subcutaneous injection. After 5 days, platelet count was measured in comparison to corresponding placebo experiments.

Substance	Platelet count versus placebo
GCiegptlrqwlaaraCKQDSDCLAGCVCGPNGFCGS (GCIEGPTLRQWLAARACKQDSDCLAGCVCGPNGFCGS) [SE-ET-TP-020]	doubling of the platelet count
